# Tests used:
# [1] = tested on: HeLa cells (cervical cancer); assay: MTT cell viability assay, 72 h, HeLa; type: cell-based, human; conditions: MTT assay, 72 h incubation, mean ± SD
# Protocol: (§1) Compounds 7–36 and 47–54 were tested regarding their effect on growth of three human cancer cell lines: colon cancer HCT-116, breast cancer MCF-7 and cervical cancer HeLa, as well as on noncancerous keratinocyte cell line HaCaT. Cell viability was measured with MTT assay after 72 h of incubation with tested compound in five concentration 1–100 μM. The MTT test enables us to quantify the living cells by measuring the activity of mitochondrial enzymes, enables reducing tetrazolium dye MTT to purple formazan. In this manner, IC50—molar concentration [µM] that inhibits 50% net cell growth—was determined (Table 1 and Table 2).
# (§2) All chemicals, if not stated otherwise, were obtained from Sigma-Aldrich (St. Louis, MO, USA). The MCF-7, HeLa and HaCaT cell lines were purchased from Cell Lines Services (Eppelheim, Germany), the HCT-116 cell line were obtained from ATCC (ATCC-No: CCL-247). Cells were cultured in Dulbecco’s modified Eagle’s medium (DMEM) supplemented with 10% fetal bovine serum, 2 mM glutamine, 100 units/mL penicillin, and 100 μg/mL streptomycin. Cultures were maintained in a humidified atmosphere with 5% CO2 at 37 °C in an incubator (HeraCell, Heraeus, Langenselbold, Germany). Cell viability was determined using the MTT [3-(4,5-dimethylthiazol-2-yl)-2,5-diphenyl-tetrazolium bromide] assay. Stock solutions of the studied compounds were obtained in 100% DMSO. […] Cells were seeded in 96-well plates at a density of 5 × 10^3 cells/well and treated for 72 h with the examined compounds in the concentration range 1–100 μM (1, 10, 25, 50 and 100 μM). Following treatment, MTT (0.5 mg/mL) was added to the medium and cells were further incubated for 2 h at 37 °C. Cells were lysed with DMSO and the absorbance of the formazan solution was measured at 550 nm with a plate reader Victor 1420 multilabel counter, (PerkinElmer, Inc. Waltham, MA USA). […] The experiment was performed in triplicate. Values are expressed as the mean ± SD of at least three independent experiments
# [2] = tested on: HCT-116 cells (colon cancer); assay: MTT cell viability assay, 72 h, HCT-116; type: cell-based, human; conditions: MTT assay, 72 h incubation, mean ± SD
# Protocol: as §1, §2
# [3] = tested on: MCF-7 cells (breast cancer); assay: MTT cell viability assay, 72 h, MCF-7; type: cell-based, human; conditions: MTT assay, 72 h incubation, mean ± SD
# Protocol: as §1, §2
# [4] = tested on: HaCaT noncancerous keratinocyte cell line; assay: MTT cell viability assay, 72 h, HaCaT; type: cell-based; conditions: for IC50: Homo sapiens, HaCaT, MTT assay, 72 h incubation, mean ± SD; for activity against HaCaT compared with cancer lines: in words
# Protocol: as §1, §2
compound,measurement,setting,value
"NS(=O)(=O)c1cc(-c2nnc(/C=C/c3ccccc3)o2)c(Cl)cc1Cl [Compound 7, (E)-2,4-Dichloro-5-(5-styryl-1,3,4-oxadiazol-2-yl)benzenesulfonamide]",IC50,"[1]; Homo sapiens, HeLa, 72 h",455 ± 14 µM
same,IC50,"[2]; Homo sapiens, HCT-116, 72 h",86 ± 3 µM
same,IC50,"[3]; Homo sapiens, MCF7, 72 h",165 ± 5 µM
"NS(=O)(=O)c1cc(-c2nnc(/C=C/c3cccc(Cl)c3)o2)c(Cl)cc1Cl [Compound 9, (E)-2,4-Dichloro-5-(5-(3-chlorostyryl)-1,3,4-oxadiazol-2-yl)benzenesulfonamide]",IC50,"[1]; Homo sapiens, HeLa, 72 h",19 ± 1 µM
same,IC50,[4],98 ± 2 µM
same,IC50,"[2]; Homo sapiens, HCT-116, 72 h",24 ± 1 µM
same,IC50,"[3]; Homo sapiens, MCF7, 72 h",150 ± 10 µM
NS(=O)(=O)c1cc(-c2nnc(/C=C/c3cccc(Cl)c3)o2)c(Cl)cc1SCc1ccccc1 [Compound 10],activity against HaCaT compared with cancer lines,[4],at the same level as against cancer lines
"NS(=O)(=O)c1cc(-c2nnc(/C=C/c3ccc(Cl)cc3)o2)c(Cl)cc1Cl [Compound 11, (E)-2,4-Dichloro-5-(5-(4-chlorostyryl)-1,3,4-oxadiazol-2-yl)benzenesulfonamide]",IC50,"[1]; Homo sapiens, HeLa, 72 h",42 ± 1 µM
same,IC50,[4],51 ± 3 µM
same,IC50,"[2]; Homo sapiens, HCT-116, 72 h",22 ± 1 µM
same,IC50,"[3]; Homo sapiens, MCF7, 72 h",28 ± 1 µM
"NS(=O)(=O)c1cc(-c2nnc(/C=C/c3c(Cl)cccc3Cl)o2)c(Cl)cc1Cl [Compound 13, (E)-2,4-Dichloro-5-(5-(2,6-dichlorostyryl)-1,3,4-oxadiazol-2-yl)benzenesulfonamide]",IC50,"[1]; Homo sapiens, HeLa, 72 h",25 ± 1 µM
same,IC50,[4],95 ± 2 µM
same,IC50,"[2]; Homo sapiens, HCT-116, 72 h",16 ± 1 µM
same,IC50,"[3]; Homo sapiens, MCF7, 72 h",92 ± 5 µM
"NS(=O)(=O)c1cc(-c2nnc(/C=C/c3ccc(Br)cc3)o2)c(Cl)cc1Cl [Compound 15, (E)-5-(5-(4-Bromostyryl)-1,3,4-oxadiazol-2-yl)-2,4-dichlorobenzenesulfonamide]",IC50,"[1]; Homo sapiens, HeLa, 72 h",34 ± 2 µM
same,IC50,[4],55 ± 2 µM
same,IC50,"[2]; Homo sapiens, HCT-116, 72 h",34 ± 1 µM
same,IC50,"[3]; Homo sapiens, MCF7, 72 h",41 ± 1 µM
"NS(=O)(=O)c1cc(-c2nnc(/C=C/c3ccc(O)cc3)o2)c(Cl)cc1Cl [Compound 17, (E)-2,4-Dichloro-5-(5-(4-hydroxystyryl)-1,3,4-oxadiazol-2-yl)benzenesulfonamide]",IC50,"[1]; Homo sapiens, HeLa, 72 h",99 ± 1 µM
same,IC50,[4],100 ± 5 µM
same,IC50,"[2]; Homo sapiens, HCT-116, 72 h",49 ± 1 µM
same,IC50,"[3]; Homo sapiens, MCF7, 72 h",73 ± 3 µM
"NS(=O)(=O)c1cc(-c2nnc(/C=C/c3ccc(O)cc3)o2)c(Cl)cc1SCc1ccccc1 [Compound 18, (E)-2-(Benzylthio)-4-chloro-5-(5-(4-hydroxystyryl)-1,3,4-oxadiazol-2-yl)benzenesulfonamide]",IC50,"[1]; Homo sapiens, HeLa, 72 h",18.2 ± 0.5 µM
same,IC50,[4],25.6 ± 0.5 µM
same,activity against HaCaT compared with cancer lines,[4],at the same level as against cancer lines
same,IC50,"[2]; Homo sapiens, HCT-116, 72 h",18 ± 1 µM
same,IC50,"[3]; Homo sapiens, MCF7, 72 h",59 ± 3 µM
"N#Cc1ccc(/C=C/c2nnc(-c3cc(S(N)(=O)=O)c(Cl)cc3Cl)o2)cc1 [Compound 19, (E)-2,4-Dichloro-5-(5-(4-cyanostyryl)-1,3,4-oxadiazol-2-yl)benzenesulfonamide]",IC50,"[1]; Homo sapiens, HeLa, 72 h",117 ± 6 µM
same,IC50,[4],102 ± 3 µM
same,IC50,"[2]; Homo sapiens, HCT-116, 72 h",13.7 ± 0.5 µM
same,IC50,"[3]; Homo sapiens, MCF7, 72 h",10 ± 0.3 µM
"N#Cc1ccc(/C=C/c2nnc(-c3cc(S(N)(=O)=O)c(SCc4ccccc4)cc3Cl)o2)cc1 [Compound 20, (E)-2-(Benzylthio)-4-chloro-5-(5-(4-cyanostyryl)-1,3,4-oxadiazol-2-yl)benzenesulfonamide]",IC50,"[1]; Homo sapiens, HeLa, 72 h",9 to 12 µM
same,IC50,[1],12.2 ± 0.5 µM
same,IC50,[4],20 ± 1 µM
same,IC50,"[2]; Homo sapiens, HCT-116, 72 h",9 to 12 µM
same,IC50,[2],10.3 ± 0.2 µM
same,IC50,"[3]; Homo sapiens, MCF7, 72 h",9 to 12 µM
same,IC50,[3],8.9 ± 0.5 µM
"NS(=O)(=O)c1cc(-c2nnc(/C=C/c3ccc(C(F)(F)F)cc3)o2)c(Cl)cc1Cl [Compound 21, (E)-2,4-Dichloro-5-(5-(4-(trifluoromethyl)styryl)-1,3,4-oxadiazol-2-yl)benzenesulfonamide]",IC50,"[1]; Homo sapiens, HeLa, 72 h",90 ± 2 µM
same,IC50,[4],95 ± 4 µM
same,IC50,"[2]; Homo sapiens, HCT-116, 72 h",18 ± 1 µM
same,IC50,"[3]; Homo sapiens, MCF7, 72 h",75 ± 2 µM
"NS(=O)(=O)c1cc(-c2nnc(/C=C/c3ccc(C(F)(F)F)cc3)o2)c(Cl)cc1SCc1ccccc1 [Compound 22, (E)-2-(Benzylthio)-4-chloro-5-(5-(4-(trifluoromethyl)styryl)-1,3,4-oxadiazol-2-yl)benzenesulfonamide]",IC50,"[1]; Homo sapiens, HeLa, 72 h",33.4 ± 0.5 µM
same,IC50,[4],33 ± 1 µM
same,IC50,"[2]; Homo sapiens, HCT-116, 72 h",15.2 ± 0.1 µM
same,IC50,"[3]; Homo sapiens, MCF7, 72 h",30 ± 1 µM
"NS(=O)(=O)c1cc(-c2nnc(/C=C/c3ccncc3)o2)c(Cl)cc1Cl [Compound 23, (E)-2,4-Dichloro-5-(5-(2-(pyridin-4-yl)vinyl)-1,3,4-oxadiazol-2-yl)benzenesulfonamide]",IC50,"[1]; Homo sapiens, HeLa, 72 h",740 ± 37 µM
same,IC50,"[2]; Homo sapiens, HCT-116, 72 h",255 ± 13 µM
same,IC50,"[3]; Homo sapiens, MCF7, 72 h",640 ± 13 µM
"NS(=O)(=O)c1cc(-c2nnc(/C=C/c3cccnc3)o2)c(Cl)cc1Cl [Compound 25, (E)-2,4-Dichloro-5-(5-(2-(pyridin-3-yl)vinyl)-1,3,4-oxadiazol-2-yl)benzenesulfonamide]",IC50,"[1]; Homo sapiens, HeLa, 72 h",570 ± 17 µM
same,IC50,"[2]; Homo sapiens, HCT-116, 72 h",220 ± 11 µM
same,IC50,"[3]; Homo sapiens, MCF7, 72 h",760 ± 24 µM
"NS(=O)(=O)c1cc(-c2nnc(/C=C/c3cccnc3)o2)c(Cl)cc1SCc1ccccc1 [Compound 26, (E)-2-(Benzylthio)-4-chloro-5-(5-(2-(pyridin-3-yl)vinyl)-1,3,4-oxadiazol-2-yl)benzenesulfonamide]",IC50,"[1]; Homo sapiens, HeLa, 72 h",135 ± 4 µM
same,IC50,"[2]; Homo sapiens, HCT-116, 72 h",85 ± 5 µM
same,IC50,"[3]; Homo sapiens, MCF7, 72 h",350 ± 17 µM
"NS(=O)(=O)c1cc(-c2nnc(/C=C/c3ccccn3)o2)c(Cl)cc1Cl [Compound 27, (E)-2,4-Dichloro-5-(5-(2-(pyridin-2-yl)vinyl)-1,3,4-oxadiazol-2-yl)benzenesulfonamide]",IC50,"[1]; Homo sapiens, HeLa, 72 h",170 ± 5 µM
same,IC50,"[2]; Homo sapiens, HCT-116, 72 h",117 ± 4 µM
same,IC50,"[3]; Homo sapiens, MCF7, 72 h",110 ± 2 µM
"NS(=O)(=O)c1cc(-c2nnc(/C=C/c3cccs3)o2)c(Cl)cc1Cl [Compound 29, (E)-2,4-Dichloro-5-(5-(2-(thiophen-2-yl)vinyl)-1,3,4-oxadiazol-2-yl)benzenesulfonamide]",IC50,"[1]; Homo sapiens, HeLa, 72 h",245 ± 12 µM
same,IC50,"[2]; Homo sapiens, HCT-116, 72 h",108 ± 4 µM
same,IC50,"[3]; Homo sapiens, MCF7, 72 h",175 ± 12 µM
"NS(=O)(=O)c1ccc(-c2nnc(/C=C/c3ccccc3)o2)cc1 [Compound 47, (E)-4-(5-Styryl-1,3,4-oxadiazol-2-yl)benzenesulfonamide]",IC50,"[1]; Homo sapiens, HeLa, 72 h",130 ± 7 µM
same,IC50,"[2]; Homo sapiens, HCT-116, 72 h",185 ± 11 µM
same,IC50,"[3]; Homo sapiens, MCF7, 72 h",168 ± 8 µM
"NS(=O)(=O)c1ccc(-c2nnc(/C=C/c3ccc(C(F)(F)F)cc3)o2)cc1 [Compound 50, (E)-4-(5-(4-(Trifluoromethyl)styryl)-1,3,4-oxadiazol-2-yl)benzenesulfonamide]",IC50,"[1]; Homo sapiens, HeLa, 72 h",520 ± 25 µM
same,IC50,"[2]; Homo sapiens, HCT-116, 72 h",155 ± 7 µM
same,IC50,"[3]; Homo sapiens, MCF7, 72 h",280 ± 15 µM
"Clc1ccc(-c2nnc(/C=C/c3ccccc3)o2)c(Cl)c1 [Compound 51, (E)-2-(2,4-Dichlorophenyl)-5-styryl-1,3,4-oxadiazole]",IC50,"[1]; Homo sapiens, HeLa, 72 h",190 ± 10 µM
same,IC50,"[2]; Homo sapiens, HCT-116, 72 h",92 ± 2 µM
same,IC50,"[3]; Homo sapiens, MCF7, 72 h",125 ± 6 µM
"Clc1ccc(/C=C/c2nnc(-c3ccc(Cl)cc3Cl)o2)cc1 [Compound 52, (E)-2-(4-Chlorostyryl)-5-(2,4-dichlorophenyl)-1,3,4-oxadiazole]",IC50,"[1]; Homo sapiens, HeLa, 72 h",215 ± 6 µM
same,IC50,"[2]; Homo sapiens, HCT-116, 72 h",64 ± 3 µM
same,IC50,"[3]; Homo sapiens, MCF7, 72 h",110 ± 6 µM
"N#Cc1ccc(/C=C/c2nnc(-c3ccc(Cl)cc3Cl)o2)cc1 [Compound 53, (E)-4-(2-(5-(2,4-Dichlorophenyl)-1,3,4-oxadiazol-2-yl)vinyl)benzonitrile]",IC50,"[1]; Homo sapiens, HeLa, 72 h",225 ± 11 µM
same,IC50,"[2]; Homo sapiens, HCT-116, 72 h",106 ± 3 µM
same,IC50,"[3]; Homo sapiens, MCF7, 72 h",142 ± 6 µM
"FC(F)(F)c1ccc(/C=C/c2nnc(-c3ccc(Cl)cc3Cl)o2)cc1 [Compound 54, (E)-2-(2,4-Dichlorophenyl)-5-(4-(trifluoromethyl)styryl)-1,3,4-oxadiazole]",IC50,"[1]; Homo sapiens, HeLa, 72 h",104 ± 3 µM
same,IC50,"[2]; Homo sapiens, HCT-116, 72 h",98 ± 1 µM
same,IC50,"[3]; Homo sapiens, MCF7, 72 h",102 ± 5 µM

# Reference: paper PMC7139731, “Synthesis, Anticancer Evaluation and Structure-Activity Analysis of Novel (E)- 5-(2-Arylvinyl)-1,3,4-oxadiazol-2-yl)benzenesulfonamides” (International Journal of Molecular Sciences, 2020)
